{"source": "patent US4780560A", "about": "“Nitrate derivatives and vasodilators containing the same” (priority 1986, dated 1988)", "key": {"[1]": {"test_system": "Coronary artery", "assay": "Vasodilating activity: increase in coronary blood flow in anesthetized dogs", "format": "in vivo, Hybrid adult dogs", "conditions": "i.v., n = 3 anesthetized dogs, vs. prior to administration", "protocol": "(§1) A suspension of the compounds produced in the above examples in 0.5% HCO 60 solution was administered through the lateroradial dermal vein. […] As a control drug was employed Cinnepazied (1-[(1-pyrrolidinylcarbonyl)methyl]-4-(3,4,5-trimethyoxycinnamoyl)piperazine)."}, "[2]": {"test_system": "Vertebral artery", "assay": "Vasodilating activity: increase in vertebral blood flow in anesthetized dogs", "format": "in vivo, Hybrid adult dogs", "conditions": "i.v., n = 3 anesthetized dogs, vs. prior to administration", "protocol": "as §1"}}}
{"compound": "COc1cc(C=CC(=O)N2CCN(CC(=O)N3CCCC3)CC2)cc(OC)c1OC", "note": "[Cinnepazid, 1-[(1-pyrrolidinylcarbonyl)methyl]-4-(3,4,5-trimethyoxycinnamoyl)piperazine, reference compound]", "values": [{"measurement": "Increase in blood flow (Δ% ± SE), Coronary artery", "setting": "[1]; 0.3 mg/kg", "result": "2.1 ± 0.8 Δ%"}, {"measurement": "Increase in blood flow (Δ% ± SE), Coronary artery", "setting": "[1]; 1.0 mg/kg", "result": "10.0 ± 0.5 Δ%"}, {"measurement": "Increase in blood flow (Δ% ± SE), Vertebral artery", "setting": "[2]; 0.3 mg/kg", "result": "1.5 ± 0.4 Δ%"}, {"measurement": "Increase in blood flow (Δ% ± SE), Vertebral artery", "setting": "[2]; 1.0 mg/kg", "result": "5.6 ± 0.2 Δ%"}]}
{"compound": "COc1cc(/C=C/C=C/C(=O)NCCO[N+](=O)[O-])cc(OC)c1OC", "note": "[Example 1, N-(β-hydroxyethyl)-5-(3,4,5-trimethoxyphenyl)-2,4-pentadienoic acid amide nitrate]", "values": [{"measurement": "Increase in blood flow (Δ% ± SE), Coronary artery", "setting": "[1]; 0.3 mg/kg", "result": "3.6 ± 0.2 Δ%"}, {"measurement": "Increase in blood flow (Δ% ± SE), Coronary artery", "setting": "[1]; 1.0 mg/kg", "result": "28.6 ± 1.9 Δ%"}, {"measurement": "Increase in blood flow (Δ% ± SE), Vertebral artery", "setting": "[2]; 0.3 mg/kg", "result": "50.0 ± 2.4 Δ%"}, {"measurement": "Increase in blood flow (Δ% ± SE), Vertebral artery", "setting": "[2]; 1.0 mg/kg", "result": "83.3 ± 7.5 Δ%"}]}
{"compound": "COc1cc(/C=C/C(=O)NCCO[N+](=O)[O-])cc(OC)c1OC", "note": "[Example 2, N-(β-hydroxyethyl)-3,4,5-trimethoxycinnamic acid amide nitrate]", "values": [{"measurement": "Increase in blood flow (Δ% ± SE), Coronary artery", "setting": "[1]; 0.3 mg/kg", "result": "3.8 ± 0.5 Δ%"}, {"measurement": "Increase in blood flow (Δ% ± SE), Coronary artery", "setting": "[1]; 1.0 mg/kg", "result": "22.9 ± 1.5 Δ%"}, {"measurement": "Increase in blood flow (Δ% ± SE), Vertebral artery", "setting": "[2]; 0.3 mg/kg", "result": "35.0 ± 1.7 Δ%"}, {"measurement": "Increase in blood flow (Δ% ± SE), Vertebral artery", "setting": "[2]; 1.0 mg/kg", "result": "58.3 ± 5.3 Δ%"}]}
